The subject of assay [1] is G3BP1 NFT2. Type of assay: binding, human. To be noted: library DMS-CoV, bait G3BP1 NFT2, prey N, listed as aa = residue placed at this position, column sums to 1.
In assay [2] the test system is PABPC1 PABC. It is filed as binding, human. Conditions: DMS-BM library, bait PABPC1 PABC, row aa = residue at this position.
Where [3] appears, read: prey ATXN2, peptide TLNPNAKEFNPRSFSQ, N = wild type.

On to APRITFGGPSDSTGSN I4K (APRKTFGGPSDSTGSN), for which the “DMS PSSM value, I (position 4)” value in assay [1] (peptide APRITFGGPSDSTGSN) was determined as 0.

For “RNAPRITFGGPSDSTG P11M (RNAPRITFGGMSDSTG)”, the “DMS PSSM value, P (position 11)” value in assay [1] (peptide RNAPRITFGGPSDSTG) is recorded as 0.

As for RNAPRITFGGPSDSTG G9K (RNAPRITFKGPSDSTG), in assay [1] (peptide RNAPRITFGGPSDSTG), the “DMS PSSM value, G (position 9)” value is 0.

Take RNAPRITFGGPSDSTG R5W (RNAPWITFGGPSDSTG): the “DMS PSSM value, R (position 5)” value in assay [1] (peptide RNAPRITFGGPSDSTG) was found to be 0.

Turning to RNAPRITFGGPSDSTG A3H (RNHPRITFGGPSDSTG), in assay [1] (peptide RNAPRITFGGPSDSTG), the “DMS PSSM value, A (position 3)” value came to 0.

APRITFGGPSDSTGSN G7N (APRITFNGPSDSTGSN): in assay [1] (peptide APRITFGGPSDSTGSN), the “DMS PSSM value, G (position 7)” value came to 0.

For APRITFGGPSDSTGSN I4P (APRPTFGGPSDSTGSN), the “DMS PSSM value, I (position 4)” value in assay [1] (peptide APRITFGGPSDSTGSN) was determined as 0.

As to APRITFGGPSDSTGSN P2S (ASRITFGGPSDSTGSN), the “DMS PSSM value, P (position 2)” value in assay [1] (peptide APRITFGGPSDSTGSN) is listed as 0.0005858.

As for APRITFGGPSDSTGSN A1M (MPRITFGGPSDSTGSN), in assay [1] (peptide APRITFGGPSDSTGSN), the “DMS PSSM value, A (position 1)” value worked out at 0.03133.

As for “RNAPRITFGGPSDSTG G10K (RNAPRITFGKPSDSTG)”, the “DMS PSSM value, G (position 10)” value in assay [1] (peptide RNAPRITFGGPSDSTG) worked out at 0.

For “RNAPRITFGGPSDSTG S14M (RNAPRITFGGPSDMTG)”, in assay [1] (peptide RNAPRITFGGPSDSTG), the “DMS PSSM value, S (position 14)” value was 0.3095.

On to “RNAPRITFGGPSDSTG P11Q (RNAPRITFGGQSDSTG)”, for which the “DMS PSSM value, P (position 11)” value in assay [1] (peptide RNAPRITFGGPSDSTG) is recorded as 0.

For the substance “RNAPRITFGGPSDSTG P11V (RNAPRITFGGVSDSTG)”, in assay [1] (peptide RNAPRITFGGPSDSTG), the “DMS PSSM value, P (position 11)” value worked out at 0.

With “RNAPRITFGGPSDSTG P11F (RNAPRITFGGFSDSTG)”, in assay [1] (peptide RNAPRITFGGPSDSTG), the “DMS PSSM value, P (position 11)” value is 0.

As for RNAPRITFGGPSDSTG N2Y (RYAPRITFGGPSDSTG), the “DMS PSSM value, N (position 2)” value in assay [1] (peptide RNAPRITFGGPSDSTG) amounted to 0.

Turning to “RNAPRITFGGPSDSTG G10Y (RNAPRITFGYPSDSTG)”, the “DMS PSSM value, G (position 10)” value in assay [1] (peptide RNAPRITFGGPSDSTG) is given as 0.

RNAPRITFGGPSDSTG N2M (RMAPRITFGGPSDSTG): the “DMS PSSM value, N (position 2)” value in assay [1] (peptide RNAPRITFGGPSDSTG) was determined as 0.

For the substance “RNAPRITFGGPSDSTG G16T (RNAPRITFGGPSDSTT)”, in assay [1] (peptide RNAPRITFGGPSDSTG), the “DMS PSSM value, G (position 16)” value was found to be 0.

Consider RNAPRITFGGPSDSTG P4N (RNANRITFGGPSDSTG), for which, in assay [1] (peptide RNAPRITFGGPSDSTG), the “DMS PSSM value, P (position 4)” value was found to be 0.

Take “APRITFGGPSDSTGSN T13F (APRITFGGPSDSFGSN)”: the “DMS PSSM value, T (position 13)” value in assay [1] (peptide APRITFGGPSDSTGSN) stood at 0.002251.

Regarding APRITFGGPSDSTGSN I4N (APRNTFGGPSDSTGSN), in assay [1] (peptide APRITFGGPSDSTGSN), the “DMS PSSM value, I (position 4)” value turned out to be 0.

Turning to “RNAPRITFGGPSDSTG S12K (RNAPRITFGGPKDSTG)”, in assay [1] (peptide RNAPRITFGGPSDSTG), the “DMS PSSM value, S (position 12)” value came to 0.

On to RNAPRITFGGPSDSTG T7A (RNAPRIAFGGPSDSTG), for which the “DMS PSSM value, T (position 7)” value in assay [1] (peptide RNAPRITFGGPSDSTG) is 0.

With “TLNPNAKEFNPRSF(averaged) L2M (TMNPNAKEFNPRSF)”, in assay [2] (prey ATXN2, TLNPNAKEFNPRSF(averaged) over the two overlapping peptides, L = wild type), the “DMS-derived PSSM value (averaged), position L2” value is recorded as 0.2157.

Take TLNPNAKEFNPRSFSQ N3R (TLRPNAKEFNPRSFSQ): in assay [2] (setting [3]), the “DMS-derived PSSM value, position N3” value is 0.02401.

Take “TLNPNAKEFNPRSF(averaged) T1F (FLNPNAKEFNPRSF)”: the “DMS-derived PSSM value (averaged), position T1” value in assay [2] (prey ATXN2, TLNPNAKEFNPRSF(averaged) over the two overlapping peptides, T = wild type) was determined as 0.03587.

For the substance “TLNPNAKEFNPRSFSQ N10V (TLNPNAKEFVPRSFSQ)”, the “DMS-derived PSSM value, position N10” value in assay [2] (setting [3]) stood at 0.0007642.

In the case of KSTLNPNAKEFNPRSF T3R (KSRLNPNAKEFNPRSF), the “DMS-derived PSSM value, position T3” value in assay [2] (prey ATXN2, peptide KSTLNPNAKEFNPRSF, T = wild type) stood at 0.

The values above are taken from article PMC12102759 (Protein Science : A Publication of the Protein Society, 2025).
